One series deals with A549 cells. Nature of the series: CCK-8 cell proliferation assay, A549. Particulars: Homo sapiens, CCK-8, 72 h, ATM-normal cell line, three independent experiments, read-out: IC50 ± SD, A549. In kind it is cell-based. As for the experimental part:
(§1) A549, HCT116, NCI-H23, and LoVo cells were purchased from the Cell Resources Center of Shanghai Academy of Life Sciences, Shanghai, China. A549 cells were cultured in McCoy’s5A medium supplemented with 10% FBS (KeyGEN Biotech, Nanjing, China) and 1% penicillin/streptomycin (Gibco, 15070-063). HCT116 cells were cultured in IMDM medium supplemented with 10% FBS (KeyGEN Biotech, Nanjing, China) and 1% penicillin/streptomycin (Gibco, 15070-063). NCI-H23 cells were cultured in RPMI 1640 medium supplemented with 10% FBS (KeyGEN Biotech, Nanjing, China) and 1% penicillin/streptomycin (Gibco, 15070-063). LoVo cells were cultured in F12K medium supplemented with 10% FBS (KeyGEN Biotech, Nanjing, China) and 1% penicillin/streptomycin (Gibco, 15070-063). All cells were cultured in an incubator at 37 °C under a 5% CO2 atmosphere.
(§2) For the assay, 3000/well cells were planted into 96-well plates for 24 h and then treated with the indicated doses of drugs or controls for 72 h. Following the manufacturer’s instructions, cell proliferation/survival was measured using the CCK-8 (KeyGEN Biotech, Nanjing, China) assay and plotted via GraphPad 8.0.
(In general: Formazan colour is commonly taken as a measure of viable cells.)

Another series deals with HCT116 cells. Nature of the series: CCK-8 cell proliferation assay, HCT116. In kind it is cell-based. Particulars: Homo sapiens, HCT-116; CCK-8, 72 h, ATM-normal cell line, three independent experiments; read-out: IC50 ± SD, HCT116. As for the experimental part:
as §1, §2

The test system of another series is NCI-H23 cells. Nature of the series: CCK-8 cell proliferation assay, NCI-H23. Particulars: Homo sapiens, CCK-8, 72 h, ATM-deficient cell line, three independent experiments, read-out: IC50 ± SD, NCI-H23. In kind it is cell-based. As for the experimental part:
as §1, §2

For series [1], the system named is LoVo cells. Nature of the series: CCK-8 cell proliferation assay, LoVo. In kind it is cell-based. Particulars: Homo sapiens, CCK-8, 72 h, ATM-deficient cell line, three independent experiments, read-out: IC50 ± SD, LoVo. The method, then: as §1, §2
The next series deals with LoVo xenografts. The experiment in a line: LoVo tumor xenograft mouse model, antitumor efficacy and tolerability. In kind it is in vivo. Particulars: for tumor growth inhibition (TGI): days 1-18, single agent. As for the experimental part:
Balb/c nude mice (18–22 g, female, 4 weeks old) were purchased from Hangzhou Medical College (Hangzhou, China). All mice were inoculated subcutaneously in the right flank with 5 × 10^6 LoVo cells to initiate tumor growth. When the mean tumor volume reached approximately 100 mm^3, all mice were randomly divided into 8 groups (n = 5 per group) based on body weight and volume. […] Cisplatin was administered twice a week at the indicated doses. Tumor size and animal weight were measured every 3 days. Tumor volume was calculated as tumor volume (cm^3) = (length × width^2)/2. Tumor inhibition rate (%) = (1 − mean tumor weight in the treatment group/mean tumor weight in the control group) × 100%. The results were obtained from 5 test mice (mean ± SD) and calculated using GraphPad 8.0 software.

The next series has as its target ATR (Homo sapiens, UniProt Q13535). The experiment in a line: In vitro inhibitory activity against the ATR enzyme. In kind it is biochemical.
Series [2] concerns LoVo cells. Nature of the series: Annexin V-FITC/PI apoptosis assay by flow cytometry. Particulars: 1 μM. In kind it is cell-based, human. As for the experimental part:
The percentage of apoptotic cells was determined by the Annexin V-FITC/PI double staining kit (KeyGEN Biotech, Nanjing, China). According to the manufacturer’s instructions, LoVo cells were stained with Annexin V-FITC and PI. The signal of the FITC and PI was recorded by BD FACSCelesta Flow Cytometer (BD FACSCelesta, Becton, Dickinson and Company) and the FlowJo software.
In general terms: Flow cytometry measures light scatter and fluorescence of single cells or particles in a stream.

For a further series, the system named is 207 kinases. Nature of the series: Kinase panel selectivity screen at 1 μM. In kind it is biochemical, human. Particulars: single concentration of 1 μM, duplicate.
Series [3] deals with LoVo cells. The experiment in a line: Colony formation assay. Particulars: 14 days. In kind it is cell-based, human. An excerpt: LoVo cells at a concentration of 800 cells/well were exposed to various concentrations of ZH-12 for 14 days. After 14 days of treatment, the colonies were fixed with 4% paraformaldehyde, stained with 0.1% crystal violet, and imaged using an upright biological microscope (Olympus BX53, Tokyo, Japan). The experiments were repeated at least three times and plotted via GraphPad 8.0.

Series [4] has as its system LoVo cells. Nature of the series: Wound healing migration assay. In kind it is cell-based, human. Conditions: 48 h. As for the experimental part: LoVo cells in the logarithmic phase were collected and seeded in 6-well plates and cultured overnight. A straight line was drawn across the cell with a sterile pipette tip. A culture medium containing different concentrations of ZH-12 or 0.1% DMSO (10% FBS) was added. Scratch widths were recorded under an inverted microscope (Olympus, Waltham, MA, USA) at 0 h and 48 h.

The test system of series [5] is LoVo cells. The experiment in a line: Comet assay for DNA damage. In kind it is cell-based, human. Particulars: 72 h. The method, then:
The comet assay was performed following the protocol of the manufacturer of the Comet Assay Kit (KeyGEN Biotech, Nanjing, China). […] After 3 days of treatment, the cells (1 × 10^4/mL) were collected, mixed with low-melting agarose at a ratio of 1:10 (v/v), layered on slides, lysed in lysis buffer at 4 °C for 2 h, and then lysed in alkaline lysis solution at room temperature for 30 min. Following electrophoresis, the cells were stained with PI and observed with an […] biomicroscope (Olympus BX53, Tokyo, Japan). Three images were randomly captured per slide.

For series [6], the system named is p-ATR(Thr1989) and p-CHK1(Ser345). The experiment in a line: Western blot of ATR/CHK1 signaling in HU-treated LoVo cells. In kind it is cell-based, human. Conditions: LoVo cells treated with HU (hydroxyurea). As for the experimental part:
(§3) LoVo cells with a density of 1 × 10^6 were inoculated in a small cell culture dish at a single density for 24 h and then treated with the specified concentration of 5% dimethyl sulfoxide or compound at different times. The cells were washed with cold PBS and lysed with RIPA buffer (Beyotime, Shanghai, China) containing protease inhibitors (Beyotime, Shanghai, China) and phosphatase inhibitors (Beyotime, Shanghai, China). After lysis of the total cell solution on ice for 60 min, the lysate was centrifuged (12,000 rpm, 4 °C, 20 min); The total protein concentrations obtained were determined using the BCA kit (Beyotime, Shanghai, China). A proper 6 × loading buffer was added before use, and the samples were denatured by boiling. Then, 30–100 μg of protein was loaded onto a 4–12% SDS-PAGE gel and then transferred to the PVDF membrane (Millipore). The membrane was occluded for 1 h, incubated overnight with primary antibody at 4 °C, followed by washing 3 times with Tris-buffered saline and Tween 20 (TBST) for 10 min. After incubation with a second antibody with horseradish peroxidase for 60 min at room temperature, the membrane was washed 3 times for 10 min with TBST. Finally, blotting was performed with an enhanced chemiluminescence assay kit (KeyGEN Biotech, Nanjing, China). The software ImageJ was used to quantify the percentage degradation of proteins. […]
For orientation: Immunoblotting shows a protein as a band on a membrane.

For series [7] the test system is unchanged. The experiment in a line: Western blot of ATR/CHK1 signaling in LoVo xenograft tumors. In kind it is in vivo, Balb/c nude mice. Conditions: LoVo xenograft tumors, 50, 25 and 12.5 mg/kg. As for the experimental part:
as §3, with “The membrane was occluded for 1 h, incubated overnight with primary antibody at 4 °C, followed by washing 3 times with Tris-buffered saline and Tween 20 (TBST) for 10 min. After incubation with a second antibody with horseradish peroxidase for 60 min at room temperature, the membrane was washed 3 times for 10 min with TBST. Finally, blotting was performed with an enhanced chemiluminescence assay kit (KeyGEN Biotech, Nanjing, China).” left out
Balb/c nude mice (18–22 g, female, 4 weeks old) were purchased from Hangzhou Medical College (Hangzhou, China). […] Tumor size and animal weight were measured every 3 days. Tumor volume was calculated as tumor volume (cm^3) = (length × width^2)/2. […] The results were obtained from 5 test mice (mean ± SD) and calculated using GraphPad 8.0 software.

The mark [8] stands for this setting: 25 mg/kg twice daily, AZD6738 orally, ZH-12 intraperitoneally.
The mark [9] stands for this setting: mean ± SD of two independent experiments, read-out: ATR IC50 ± SD.

Several values for one entry are separate records, joined by “and”; a condition that tells them apart may be missing. Equal entries are not always repeated. Where two headings read alike, the source gives them in different places.

Sequence of ATR (Q13535 whole entry): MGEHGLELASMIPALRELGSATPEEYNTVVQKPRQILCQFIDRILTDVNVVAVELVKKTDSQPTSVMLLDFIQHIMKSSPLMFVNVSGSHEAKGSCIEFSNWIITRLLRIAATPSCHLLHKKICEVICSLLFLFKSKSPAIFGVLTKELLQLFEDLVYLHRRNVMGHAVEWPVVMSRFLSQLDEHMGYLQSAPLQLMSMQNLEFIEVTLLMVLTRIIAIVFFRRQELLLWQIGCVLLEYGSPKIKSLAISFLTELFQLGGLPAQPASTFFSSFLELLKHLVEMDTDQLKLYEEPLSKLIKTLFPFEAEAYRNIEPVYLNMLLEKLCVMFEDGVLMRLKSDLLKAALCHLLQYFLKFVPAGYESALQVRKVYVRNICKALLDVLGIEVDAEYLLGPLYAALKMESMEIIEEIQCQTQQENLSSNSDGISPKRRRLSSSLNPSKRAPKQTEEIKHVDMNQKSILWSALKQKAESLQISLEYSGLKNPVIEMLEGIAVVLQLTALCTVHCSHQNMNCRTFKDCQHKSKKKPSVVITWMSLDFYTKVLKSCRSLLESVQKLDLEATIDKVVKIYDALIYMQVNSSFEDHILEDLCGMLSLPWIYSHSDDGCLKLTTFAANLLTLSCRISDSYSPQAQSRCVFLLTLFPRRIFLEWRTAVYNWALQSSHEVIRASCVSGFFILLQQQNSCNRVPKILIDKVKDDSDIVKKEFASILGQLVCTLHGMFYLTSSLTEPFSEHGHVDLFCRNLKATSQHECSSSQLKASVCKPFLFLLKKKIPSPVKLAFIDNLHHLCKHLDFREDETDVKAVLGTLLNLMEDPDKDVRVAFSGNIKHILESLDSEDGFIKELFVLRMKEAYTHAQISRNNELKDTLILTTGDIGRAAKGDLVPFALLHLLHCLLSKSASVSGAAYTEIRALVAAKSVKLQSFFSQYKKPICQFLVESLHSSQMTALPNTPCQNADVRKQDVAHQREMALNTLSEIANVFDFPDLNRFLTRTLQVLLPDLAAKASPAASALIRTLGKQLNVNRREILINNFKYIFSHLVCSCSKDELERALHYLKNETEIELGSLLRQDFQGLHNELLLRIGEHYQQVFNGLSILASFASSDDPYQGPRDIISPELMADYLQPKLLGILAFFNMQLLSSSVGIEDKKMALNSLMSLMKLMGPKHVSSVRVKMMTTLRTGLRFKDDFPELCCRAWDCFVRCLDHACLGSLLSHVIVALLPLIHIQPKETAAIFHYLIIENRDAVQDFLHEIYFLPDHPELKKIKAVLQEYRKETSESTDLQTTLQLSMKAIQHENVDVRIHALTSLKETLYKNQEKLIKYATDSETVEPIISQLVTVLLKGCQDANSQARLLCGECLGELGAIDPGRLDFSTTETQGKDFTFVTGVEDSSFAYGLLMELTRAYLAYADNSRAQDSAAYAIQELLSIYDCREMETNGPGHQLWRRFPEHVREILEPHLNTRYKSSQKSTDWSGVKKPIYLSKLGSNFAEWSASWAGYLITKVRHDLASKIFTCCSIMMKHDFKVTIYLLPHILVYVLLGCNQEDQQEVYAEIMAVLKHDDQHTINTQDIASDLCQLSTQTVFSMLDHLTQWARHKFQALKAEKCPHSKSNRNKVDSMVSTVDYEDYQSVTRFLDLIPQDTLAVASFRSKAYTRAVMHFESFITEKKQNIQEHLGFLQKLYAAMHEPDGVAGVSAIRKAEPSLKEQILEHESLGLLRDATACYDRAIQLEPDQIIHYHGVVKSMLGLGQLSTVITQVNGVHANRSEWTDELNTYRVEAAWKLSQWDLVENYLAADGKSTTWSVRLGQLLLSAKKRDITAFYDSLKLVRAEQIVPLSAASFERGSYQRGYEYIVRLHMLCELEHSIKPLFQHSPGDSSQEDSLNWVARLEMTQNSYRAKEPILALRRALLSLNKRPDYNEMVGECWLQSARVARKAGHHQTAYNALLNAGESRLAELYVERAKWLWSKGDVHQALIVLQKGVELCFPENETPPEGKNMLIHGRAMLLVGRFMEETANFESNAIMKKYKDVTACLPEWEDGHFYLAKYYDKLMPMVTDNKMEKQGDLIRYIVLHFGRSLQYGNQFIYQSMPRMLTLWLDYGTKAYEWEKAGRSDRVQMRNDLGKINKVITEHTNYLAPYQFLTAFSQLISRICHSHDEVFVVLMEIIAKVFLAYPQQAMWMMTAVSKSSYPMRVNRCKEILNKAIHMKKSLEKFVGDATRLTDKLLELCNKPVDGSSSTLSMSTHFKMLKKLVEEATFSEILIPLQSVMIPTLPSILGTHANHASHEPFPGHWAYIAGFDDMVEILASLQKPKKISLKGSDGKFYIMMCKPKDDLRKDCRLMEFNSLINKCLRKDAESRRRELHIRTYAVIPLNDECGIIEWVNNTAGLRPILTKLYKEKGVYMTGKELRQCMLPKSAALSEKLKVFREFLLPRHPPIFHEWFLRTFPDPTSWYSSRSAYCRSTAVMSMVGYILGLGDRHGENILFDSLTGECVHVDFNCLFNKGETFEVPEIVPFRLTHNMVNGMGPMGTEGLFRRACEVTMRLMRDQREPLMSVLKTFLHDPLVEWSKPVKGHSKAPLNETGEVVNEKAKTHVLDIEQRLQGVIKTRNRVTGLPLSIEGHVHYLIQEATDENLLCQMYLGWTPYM
Sequence of ATR (Q8WXE1 whole entry partner): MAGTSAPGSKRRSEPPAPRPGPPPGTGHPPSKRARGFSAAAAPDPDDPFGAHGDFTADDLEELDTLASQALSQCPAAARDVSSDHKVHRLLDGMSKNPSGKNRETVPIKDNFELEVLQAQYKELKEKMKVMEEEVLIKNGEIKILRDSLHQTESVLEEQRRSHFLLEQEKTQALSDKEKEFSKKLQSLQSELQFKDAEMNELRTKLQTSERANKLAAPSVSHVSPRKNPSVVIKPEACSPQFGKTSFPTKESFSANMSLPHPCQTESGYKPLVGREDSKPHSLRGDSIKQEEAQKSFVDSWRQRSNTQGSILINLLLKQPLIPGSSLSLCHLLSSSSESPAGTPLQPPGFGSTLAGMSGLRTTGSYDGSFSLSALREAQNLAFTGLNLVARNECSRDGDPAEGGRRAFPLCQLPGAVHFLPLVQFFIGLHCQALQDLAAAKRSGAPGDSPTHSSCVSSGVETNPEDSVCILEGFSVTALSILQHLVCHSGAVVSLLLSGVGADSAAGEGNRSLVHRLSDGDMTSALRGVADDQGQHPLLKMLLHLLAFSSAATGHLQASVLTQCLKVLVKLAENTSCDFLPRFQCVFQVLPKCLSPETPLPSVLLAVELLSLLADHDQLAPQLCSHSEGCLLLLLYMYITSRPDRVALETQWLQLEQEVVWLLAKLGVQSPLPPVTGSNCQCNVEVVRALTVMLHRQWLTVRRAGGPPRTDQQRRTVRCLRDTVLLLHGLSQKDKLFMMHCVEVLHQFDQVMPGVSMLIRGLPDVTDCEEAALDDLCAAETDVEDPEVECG

Usually IC50 stands for the midpoint of a concentration-inhibition curve. Regarding `C[C@@H]1COCCN1c1cc(C2([S@](C)(=N)=O)CC2)nc(-c2cc[nH]c3nccc2-3)n1` [AZD6738, ceralasertib, reference compound], the IC50 was 6.6 ± 0.24 µM in the series with A549 cells, 4.32 ± 0.16 µM with HCT116 cells, 0.5 ± 0.06 µM in the series on NCI-H23 cells and 0.41 ± 0.01 µM in the series with LoVo cells [1]. Besides, in the series on LoVo xenografts (setting [8]), the “tumor growth inhibition (TGI)” value is reported as 42.5%.

For `CC(C)CC(=O)N1CCc2c(nc(-c3ccnc4[nH]ccc34)nc2N2CCOC[C@H]2C)C1` [ZH-4, (R)-3-methyl-1-(4-(3-methylmorpholino)-2-(1H-pyrrolo[2,3-b]pyridin-4-yl)-5,8-dihydropyrido[3,4-d]pyrimidin-7(6H)-yl)butan-1-one], the IC50 on ATR (setting [9]) is 0.00731 ± 0.00016 µM; with A549 cells it was 20.9 ± 1.21 µM; in the series with HCT116 cells, 5.17 ± 0.58 µM; in the series on NCI-H23 cells, 1.74 ± 0.05 µM; in the series on LoVo cells [1], 18 ± 1.69 µM.

As usually defined, the melting point is the temperature, or range, at which the solid turns liquid. Take `COCC(=O)N1CCc2c(nc(-c3ccnc4[nH]ccc34)nc2N2CCOC[C@H]2C)C1` [ZH-7, (R)-2-methoxy-1-(4-(3-methylmorpholino)-2-(1H-pyrrolo[2,3-b]pyridinedin-4-yl)-5,8-dihydropyrido[3,4-d]pyrimidin-7(6H)-yl)ethan-1-one]: the melting point was 294 to 296 °C. Also, the IC50 on ATR (setting [9]) was 0.00923 ± 0.00016 µM. Further, the IC50 in the series on A549 cells stood at 25.6 ± 1.62 µM. Further, the IC50 with HCT116 cells turned out to be 6.02 ± 0.26 µM. For the same molecule, the IC50 in the series on NCI-H23 cells amounted to 6.77 ± 0.43 µM. In addition, the IC50 in the series on LoVo cells [1] amounted to 5.71 ± 0.81 µM.

In the case of `C[C@@H]1COCCN1c1nc(-c2cccc3[nH]ccc23)nc2c1CCN(C(=O)CC#N)C2` [ZH-12, (R)-3-(2-(1H-indol-4-yl)-4-(3-methylmorpholino)-5,8-dihydropyrido[3,4-d]pyrimidin-7(6H)-yl)-3-oxopropanenitrile], the IC50 on ATR (setting [9]) was 0.00681 ± 4e-05 µM; on ATR (read-out: ATR IC50), 0.0068 µM; with A549 cells, 4.74 ± 0.27 µM; in the series with HCT116 cells it was 1.61 ± 0.08 µM; with NCI-H23 cells, 0.77 ± 0.13 µM; with LoVo cells [1], 0.29 ± 0.01 µM. For the same molecule, the “apoptosis effect (percentage of apoptotic cells)” value with LoVo cells [2] worked out at 33.8%. Besides, the “tumor growth inhibition (TGI)” value in the series with LoVo xenografts (12.5 mg/kg, intraperitoneally, twice daily) is 27.0%; in the series with LoVo xenografts (setting [8]), 39.5%; with LoVo xenografts (50 mg/kg, intraperitoneally, twice daily), 53.7% and 53.8%. Further, the “body weight loss or toxicity” value in the series on LoVo xenografts (ZH-12 12.5, 25 and 50 mg/kg BID for 18 days, single agent) is “No significant body weight loss or toxicity was observed”. Moreover, the “inhibitory activities against 207 kinases” value in the series with 207 kinases is “weak or no inhibitory activities against 207 kinases”. In the series on LoVo cells [3], the “colony formation (cell proliferation)” value was “inhibited cell proliferation dose-dependently”. The “cell migration, wound healing” value in the series on LoVo cells [4] was “inhibited LoVo cell migration in a dose-dependent manner”. In addition, the “DNA damage, comet assay” value in the series with LoVo cells [5] was “induced significant amounts of DNA damage dose-dependently”. Further, the “tail intensity, comet assay” value in the series on LoVo cells [5] (0.5 µM) is recorded as “comparable tail intensity to AZD6738”. Besides, the “phosphorylation of ATR and CHK1, Western blot” value in series [6] was “inhibited the phosphorylation of ATR and its downstream kinase CHK1 in a dose-dependent manner”. For the same molecule, the “ATR phosphorylation (p-ATR Thr1989) and CHK1 phosphorylation (p-CHK1 Ser345) in tumors” value in series [7] was “significantly inhibited ATR phosphorylation”.

(Values after publication PMC10254649, “Design, Synthesis, and Biological Evaluation of Potent and Selective Inhibitors of Ataxia Telangiectasia Mutated and Rad3-Related (ATR) Kinase for the Efficient Treatment of Cancer” (Molecules, 2023).)
